How the values were obtained:
[1] = molecular target: full-length MALT1 protein (Strep-MALT1(1-824)-His) (Homo sapiens (Human), UniProt Q9UDY8); test: MALT1 Biochemical Protease Assay (Ac-LRSR-AMC substrate); conditions: 10 nM FL MALT1, 200 μM Ac-LRSR-AMC, 4 h at RT; read-out: MALT1_Biochemical activity (Ac-LRSR-amc) IC50
In short: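 Full-length MALT1 pre-incubated with compounds (30 μM to 0.5 nM, 11 threefold steps) for 50 min at RT. After Ac-LRSR-AMC was added, the reaction ran 4 h at RT and AMC fluorescence was read. IC50 and Hill slope from curve fitting against no-enzyme and no-compound controls.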

[2] = tested on: IL6 secretion by TMD8 ABC-DLBCL cells; test: Human IL6 Mesoscale assay (TMD-8); assay type: cell-based; conditions: Homo sapiens, TMD8; TMD-8 cells, 24 h
In short: (§1)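 Compounds tested from 15 μM to 58.6 nM (twofold, 9 concentrations) on 100,000 cells per well over 24 h at 37° C, without beta-mercaptoethanol. Secreted cytokine in supernatant detected by MSD electrochemiluminescence; scaling used DMSO as maximum and RN486 as full inhibition.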

[3] = tested on: IL10 secretion by TMD8 ABC-DLBCL cells; test: Human IL10 Mesoscale assay (TMD-8); assay type: cell-based; conditions: Homo sapiens, TMD8; TMD-8 cells, 24 h
In short: as §1

[4] = tested on: IL6 secretion by OCI-LY3 ABC-DLBCL cells; test: Human IL6 Mesoscale assay (OCI-LY3); assay type: cell-based; conditions: Homo sapiens, 24 h
In short: as §1

[5] = tested on: IL10 secretion by OCI-LY3 ABC-DLBCL cells; test: Human IL10 Mesoscale assay (OCI-LY3); assay type: cell-based; conditions: Homo sapiens, 24 h
In short: as §1

Chain of full-length MALT1 protein (Strep-MALT1(1-824)-His) (Q9UDY8 whole entry): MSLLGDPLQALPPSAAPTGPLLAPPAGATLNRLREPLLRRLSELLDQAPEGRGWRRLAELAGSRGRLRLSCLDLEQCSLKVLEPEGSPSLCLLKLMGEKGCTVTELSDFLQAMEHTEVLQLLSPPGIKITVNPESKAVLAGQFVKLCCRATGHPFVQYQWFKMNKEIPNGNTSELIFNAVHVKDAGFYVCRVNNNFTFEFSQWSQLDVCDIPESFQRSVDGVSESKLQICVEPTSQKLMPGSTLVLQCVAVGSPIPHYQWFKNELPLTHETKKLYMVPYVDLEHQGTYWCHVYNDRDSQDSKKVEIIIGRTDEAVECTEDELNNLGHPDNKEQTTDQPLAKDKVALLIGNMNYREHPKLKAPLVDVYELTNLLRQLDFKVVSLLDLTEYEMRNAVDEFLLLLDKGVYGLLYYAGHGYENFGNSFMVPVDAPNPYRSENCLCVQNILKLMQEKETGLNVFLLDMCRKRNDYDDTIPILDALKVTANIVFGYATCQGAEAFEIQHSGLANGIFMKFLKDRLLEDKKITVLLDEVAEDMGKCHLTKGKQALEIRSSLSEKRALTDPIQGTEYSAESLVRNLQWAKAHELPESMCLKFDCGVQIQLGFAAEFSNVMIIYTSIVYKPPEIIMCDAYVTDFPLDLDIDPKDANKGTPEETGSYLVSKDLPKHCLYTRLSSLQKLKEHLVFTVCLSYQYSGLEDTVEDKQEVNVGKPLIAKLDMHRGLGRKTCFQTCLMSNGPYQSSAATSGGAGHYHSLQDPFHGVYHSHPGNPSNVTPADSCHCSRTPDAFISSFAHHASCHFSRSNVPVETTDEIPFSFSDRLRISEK

Question: Which IC50 [1] does the source give for `O=C(Nc1cnc(-n2nccn2)c(Cl)c1)c1cnn(-c2cccc3c2ccc[n+]3[O-])c1C(F)(F)F` [Cpd 408, 5-(4-((5-chloro-6-(2H-1,2,3-triazol-2-yl)pyridin-3-yl)carbamoyl)-5-(trifluoromethyl)-1H-pyrazol-1-yl)quinoline 1-oxide] here?
Answer: 112 nM

Question: What about the IC50 [2] of the same compound?
Answer: 141 nM

Question: What about the IC50 [3] of the same compound?
Answer: 162 nM

Question: What about the IC50 [4] of the same compound?
Answer: 54 nM

Question: And the IC50 [5]?
Answer: 81 nM

Question: Which IC50 [1] does the source give for `CN(C)c1ncc(-n2ncc(C(=O)Nc3cnc(-n4nccn4)c(Cl)c3)c2C(F)(F)F)c2ccccc12` [Cpd 322, N-(5-chloro-6-(2H-1,2,3-triazol-2-yl)pyridin-3-yl)-1-(1-(dimethylamino)isoquinolin-4-yl)-5-(trifluoromethyl)-1H-pyrazole-4-carboxamide] here?
Answer: 214 nM

Question: And the IC50 [2]?
Answer: 562 nM

Question: And the IC50 [3]?
Answer: 708 nM

Question: And the IC50 [4]?
Answer: 148 nM

Question: And the IC50 [5]?
Answer: 135 nM

Question: Which IC50 [1] does the source give for `N#Cc1cc(NC(=O)c2cnn(-c3cncc4ccccc34)c2C(F)(F)F)cnc1C(=O)NCCCCN` [Cpd 236, N-(4-aminobutyl)-3-cyano-5-(1-(isoquinolin-4-yl)-5-(trifluoromethyl)-1H-pyrazole-4-carboxamido)picolinamide] here?
Answer: 724 nM

Question: What about the IC50 [2] of the same compound?
Answer: 1380 nM

Question: And the IC50 [3]?
Answer: 427 nM

Question: And the IC50 [4]?
Answer: 380 nM

Question: What about the IC50 [5] of the same compound?
Answer: 309 nM

Question: Which results are given for `O=C(Nc1cnc(-n2nccn2)c(Cl)c1)c1cnn(-c2cccc3c[n+]([O-])ccc23)c1C(F)(F)F` [Cpd 407, 5-(4-((5-chloro-6-(2H-1,2,3-triazol-2-yl)pyridin-3-yl)carbamoyl)-5-(trifluoromethyl)-1H-pyrazol-1-yl)isoquinoline 2-oxide]?
Answer: IC50 [1]: 21 nM; IC50 [2]: 110 nM; IC50 [3]: 100 nM; IC50 [4]: 34 nM; IC50 [5]: 40 nM

Question: For `O=C(Nc1cnc(-n2nccn2)c(Cl)c1)c1cnn(-c2cccc3nc(F)ccc23)c1C(F)(F)F` [Cpd 277, N-(5-chloro-6-(2H-1,2,3-triazol-2-yl)pyridin-3-yl)-1-(2-fluoroquinolin-5-yl)-5-(trifluoromethyl)-1H-pyrazole-4-carboxamide], which IC50 [1] is on record?
Answer: 132 nM

Question: What about the IC50 [2] of the same compound?
Answer: 170 nM

Question: And the IC50 [3]?
Answer: 95 nM

Question: And the IC50 [4]?
Answer: 89 nM

Question: And the IC50 [5]?
Answer: 87 nM

Question: With `Cn1ncc2cccc(-n3ncc(C(=O)Nc4cnc(-n5nccn5)c(C#N)c4)c3C(F)(F)F)c21` [Cpd 260, N-(5-cyano-6-(2H-1,2,3-triazol-2-yl)pyridin-3-yl)-1-(1-methyl-1H-indazol-7-yl)-5-(trifluoromethyl)-1H-pyrazole-4-carboxamide] as the compound, how does the IC50 [1] read?
Answer: 204 nM

Question: What about the IC50 [2] of the same compound?
Answer: > 3020 nM

Question: And the IC50 [3]?
Answer: > 3020 nM

Question: What about the IC50 [4] of the same compound?
Answer: > 3020 nM

Question: What about the IC50 [5] of the same compound?
Answer: > 3020 nM

Question: How did the IC50 [1] turn out when `CNC(=O)c1ncc(-n2ncc(C(=O)Nc3cnc(-n4nccn4)c(Cl)c3)c2C(F)(F)F)c2ccsc12` [Cpd 392, 4-(4-((5-chloro-6-(2H-1,2,3-triazol-2-yl)pyridin-3-yl)carbamoyl)-5-(trifluoromethyl)-1H-pyrazol-1-yl)-N-methylthieno[2,3-c]pyridine-7-carboxamide] was run?
Answer: 26 nM

Question: What about the IC50 [2] of the same compound?
Answer: 170 nM

Question: What about the IC50 [3] of the same compound?
Answer: 200 nM

Question: What about the IC50 [4] of the same compound?
Answer: 26 nM

Question: And the IC50 [5]?
Answer: 17 nM

Question: For `CC(O)c1ncc(-n2ncc(C(=O)Nc3cnc(-n4nccn4)c(Cl)c3)c2C(F)(F)F)c2ccccc12` (stereo not drawn) [Cpd 371, N-(5-chloro-6-(2H-1,2,3-triazol-2-yl)pyridin-3-yl)-1-(1-(1-hydroxyethyl)isoquinolin-4-yl)-5-(trifluoromethyl)-1H-pyrazole-4-carboxamide], which IC50 [1] is on record?
Answer: 69 nM

Question: What about the IC50 [2] of the same compound?
Answer: 13 nM

Question: What about the IC50 [3] of the same compound?
Answer: 25 nM

Question: And the IC50 [4]?
Answer: 18 nM

Question: What about the IC50 [5] of the same compound?
Answer: 18 nM

Question: How did the IC50 [1] turn out when `O=C(Nc1cnc(-n2nccn2)c(Cl)c1)c1cnn(-c2cccc3cnccc23)c1C(F)(F)F` [Cpd 449, N-(5-chloro-6-(2H-1,2,3-triazol-2-yl)pyridin-3-yl)-1-(isoquinolin-5-yl)-5-(trifluoromethyl)-1H-pyrazole-4-carboxamide] was run?
Answer: 23 nM

Question: What about the IC50 [2] of the same compound?
Answer: 78 nM

Question: And the IC50 [3]?
Answer: 98 nM

Question: What about the IC50 [4] of the same compound?
Answer: 100 nM

Question: What about the IC50 [5] of the same compound?
Answer: 68 nM
